What was measured:
Trichophyton rubrum = assay: 7 day growth test in phosphate buffered saline solution (ED 50 and ED 90); assay type: cell-based; settings: for EDso and ED90 results against T. Rubrum: compared to those obtained using bis THP phosphite and THP sulphate; for Mg. growth (% of control) / Mg. growth dry weight / ED50 / ED90: 7 day test; for ED50 / ED90: ppm (Active Compound)
From the text: The activity of 50% aqueous bis THP phosphite, 50% aqueous mono THP phosphite and 80% aqueous THP sulphate against Trichophyton rubrum were compared in a 7 day test in phosphate buffered saline solution to determine ED 50 and ED 90 values.

bacteria = assay: Time-kill test (surviving organisms by plate count) in phosphate buffered saline, bacterial strains; assay type: cell-based; settings: within 2 to 6 hours of exposure
Procedure: The following bacterial strains were used in the tests: • Streptococcus pyogenes NCTC 8198 • Streptococcus faecalis ATCC 19433 • Sarcina lutea ATCC 9341 • Proteus mirabilis NCTC 8559 • Proteus vulgaris NCTB 4175 • Klebsiella pneumoniae NCTC 10341 • Salmonella typhimurium NCTB 10258 • Salmonella enteritidis NCTC 6676 • Shigella boydii NCTC 9328 • Bacillus subtilus ATCC 6633 • Bacillus cereus ATCC 11778
Inocula for the bacterial strains were prepared from cultures on Tryptone soy agar (TSA, Oxoid CM 131) incubated at 37° C for 24 hours. […]
(§1) The test solutions as described in (5) above were prepared in 50 ml volumes and the test solutions plus a 100 ml volume of PBS (as control) were inoculated with appropriate volumes (0.5 to 1 ml) of the inocula prepared as described in (2) above, shaken to evenly distribute the inoculum and held at room temperature. Immediatedly after inoculation (time 0) and then at pre-determined times 0.1 ml aliquots were removed from the test and control solutions for counting. […]
(§2) Developing colonies were then counted and by reference to the appropriate dilution ratios the numbers of surviving organisms at each compound concentration/time point were calculated.

fungi = assay: Time-kill test (surviving organisms by plate count) in phosphate buffered saline, yeast and fungal strains; assay type: cell-based; settings: after 24 hours
Procedure: The following yeast and fungal strains were used in the tests: • Candida albicans ATCC 10231 • Candida tropicalis NCPF 3111 • Absidia corymbifera NCPF 2001 • Sporotrichum schenkii NCPF 3182 • Trichophyton rubrum NCPF 197 • Trichophyton mentagrophytes NCPF 351 • Microsporum Canis NCPF 351 • Penicillium funicolosum CMI 114933 • Aureobasidium pullulans CMI 45533
Inocula for the two yeast (Candida) strains wre prepared from cultures on Sabouraud dextrose agar (SDA Oxide CM 141) incubated at 37°C for 48 hours. Surface growth of the organisms was suspended in sterile physiological saline and standardised by plate counts to contain approximatedly 10^6 cfu/ml. […]
as §1, §2

protozoal infection = assay: Treatment of fish pond with an infected Koi Carp; assay type: in vivo; settings: 100 ppm dosed to the pond, concentration of 27 ppm in the pond water
Procedure: 100 ppm of 75% aqueous THP sulphate was dosed to the pond via the oxygenating venturi to provide a concentration of 27 ppm in the pond water.

Naegleria = assay: In vitro kill of protozoon; assay type: cell-based

## OC[P+](CO)(CO)CO [THP bromide]
Trichophyton rubrum
  EDso and ED90 results against T. Rubrum: substantially similar

## OC[P+](CO)(CO)CO.[Cl-] [THP chloride, tetrakis (hydroxymethyl) phosphonium chloride]
Trichophyton rubrum
  EDso and ED90 results against T. Rubrum: substantially similar

## THP acetate
Trichophyton rubrum
  EDso and ED90 results against T. Rubrum: substantially similar

## THP borate
Trichophyton rubrum
  EDso and ED90 results against T. Rubrum: substantially similar

## THP citrate
Trichophyton rubrum
  EDso and ED90 results against T. Rubrum: substantially similar

## THP fluoride
Trichophyton rubrum
  EDso and ED90 results against T. Rubrum: substantially similar

## THP lactate
Trichophyton rubrum
  EDso and ED90 results against T. Rubrum: substantially similar

## THP tartrate
Trichophyton rubrum
  EDso and ED90 results against T. Rubrum: substantially similar

## bis THP phosphate
Trichophyton rubrum
  EDso and ED90 results against T. Rubrum: substantially similar

## bis THP phosphite [50% bis THP phosphite]
Trichophyton rubrum; 5 ppm (Active Compound)
  Mg. growth (% of control): (82) % of control
  Mg. growth dry weight: 8.7 Mg.
Trichophyton rubrum; 15 ppm (Active Compound)
  Mg. growth (% of control): (20) % of control
  Mg. growth dry weight: 2.1 Mg.
Trichophyton rubrum; 50 ppm (Active Compound)
  Mg. growth (% of control): (0) % of control
  Mg. growth dry weight: 0 Mg.
Trichophyton rubrum; 150 ppm (Active Compound)
  Mg. growth (% of control): (0) % of control
  Mg. growth dry weight: 0 Mg.
Trichophyton rubrum; 500 ppm (Active Compound)
  Mg. growth (% of control): (0) % of control
  Mg. growth dry weight: 0 Mg.
Trichophyton rubrum
  ED50: 10 ppm
  ED90: 25 ppm

## mono THP phosphite [50% THP phosphite]
Trichophyton rubrum; 5 ppm (Active Compound)
  Mg. growth (% of control): (131) % of control
  Mg. growth dry weight: 9.3 Mg.
Trichophyton rubrum; 15 ppm (Active Compound)
  Mg. growth (% of control): (39) % of control
  Mg. growth dry weight: 2.8 Mg.
Trichophyton rubrum; 50 ppm (Active Compound)
  Mg. growth (% of control): (44) % of control
  Mg. growth dry weight: 3.1 Mg.
Trichophyton rubrum; 150 ppm (Active Compound)
  Mg. growth (% of control): (32) % of control
  Mg. growth dry weight: 2.3 Mg.
Trichophyton rubrum; 500 ppm (Active Compound)
  Mg. growth (% of control): (23) % of control
  Mg. growth dry weight: 1.6 Mg.
Trichophyton rubrum
  ED50: 11 ppm
  ED90: >500 ppm

## tetrakis(hydroxymethyl) phosphonium sulphate
bacteria
  concentration giving a high degree of lethal activity to bacteria: at least 20 ppm
fungi
  concentration giving a high degree of lethal activity to the fungi: 100-150 ppm
Protozoal infection
  infection of the other fish: none of the other fish became infected
  outcome for the infected fish: recovered fully
  tolerability in fish (feeding, distress): no signs of distress

## tetrakis(hydroxymethyl) phosphonium sulphate [80% THP Sulphate]
Trichophyton rubrum; 8 ppm (Active Compound)
  Mg. growth (% of control): (92) % of control
  Mg. growth dry weight: 7.3 Mg.
Trichophyton rubrum; 24 ppm (Active Compound)
  Mg. growth (% of control): (0) % of control
  Mg. growth dry weight: 0 Mg.
Trichophyton rubrum; 80 ppm (Active Compound)
  Mg. growth (% of control): (0) % of control
  Mg. growth dry weight: 0 Mg.
Trichophyton rubrum; 240 ppm (Active Compound)
  Mg. growth (% of control): (0) % of control
  Mg. growth dry weight: 0 Mg.
Trichophyton rubrum; 800 ppm (Active Compound)
  Mg. growth (% of control): (0) % of control
  Mg. growth dry weight: 0 Mg.
Trichophyton rubrum
  ED50: 14 ppm
  ED90: 20 ppm

## tetrakis(hydroxymethyl) phosphonium sulphate [THPS]
Naegleria
  concentration giving a complete in vitro kill of Naegleria: 15 ppm

Source: patent publication EP0275207A2, “Pharmaceutical and veterinary compositions” (priority 1987, dated 1988)
